Patent US9284350B2, “IAP BIR domain binding compounds” (Pharmascience Inc., priority 2010, dated 2016)

How the values were obtained:
[1] = biological target: T1, cIAP2 (Homo sapiens, UniProt Q13489); experiment: Fluorescence polarization-based competition assay, cIAP2; format: binding; conditions: FP assay, ki derived from IC50
T1 construct: GST (N); made in house; host or cells: E. coli DH5α
Description: (§1) Binding of compounds of Formula 1 to target BIR domains was measured using a fluorescence-polarization (FP) assay. Fluorescence-polarization was evaluated using a GENios microplate reader (TECAN) Pro instrument with the excitation filter set at 485 nm and the emission filter set at 535 nm. The final amount of protein used in the assay corresponds to the amount of protein necessary to obtain 80% of the maximum FP value in a P1 or P2 fluorescent (FITC) probe saturation experiment. The compounds potency (IC50) and selectivity, was assessed in the presence of the amount of target protein established, fluorescent probe, and a 10 point serial dilution in assay buffer (50 mM Hepes, pH 7.5, 250 mcg/mL γ-globulin, 2 mM DTT, 1% DMSO) of the selected compounds.
(§2) Assays were carried out in duplicate using untreated black 96-well plates (Corning #3915) and a total volume of 100 microliters, containing 25 microliters of fluorescent probe at a final concentration of 2 nM in assay buffer, 25 microliters of diluted compound, 25 microliters of BIR protein into assay buffer and 25 microliters of assay buffer. Buffer only (blank) or probe only in buffer (G-factor) were used as controls for calibration. The plate was incubated at room temperature in the dark for one hour and FP values in millipolarization units (mP) were recorded using Genios Pro FP reader.
(§3) The measured FP values (mP) were then plotted against compound concentration, and IC50 values were calculated based on a sigmoidal dose-response (variable-slope) curve fit using GraphPad Prism version 4.02 for Windows, GraphPad Software, San Diego Calif. USA and/or CambridgeSoft BioAssay Enterprise Version 10.1. The IC50 value is the concentration of test compound at which 50% of the tracer was displaced. ki values were derived from the calculated IC50 values as described above and according to the equation described in Nikolovska-Coleska, Z. (2004) Anal Biochem 332, 261-273. The results are presented in Table 2, wherein A=less than 25 nM; B=less than 250 nM; C=less than 1000 nM; and D=greater than 1000 nM.

[2] = test system: Colorectal carcinoma HCT116 cells; experiment: Cell death assay (MTT) in combination with HGS ETR1; format: cell-based; conditions: with HGS ETR1 30 ng/ml, 72 hours, read-out: HCT116+ mapatubimap EC50
Description: Colorectal carcinoma HCT116 cells were cultured as monolayers in 96 well plates at a density of 2000 cells per well in McCoy's 5a medium (HyClone) supplemented with 2.2 g/L sodium bicarbonate, 10% FBS (HyClone) and 1% penicillin/streptomycin (HyClone). 24 hours later, triplicate wells were treated with HGS ETR1 (30 ng/ml) in combination with compound. Cells were incubated in the presence of compound and HGS agonistic Trail receptor antibody, ETR1 (Mapatumamab, 30 ng/ml) for 72 hours. Metabolic viability of remaining cells was assessed by MTT (thiazolyl blue tetrazolium bromide, Sigma) assay.
EC50 values (50% cell survival in the presence of compound as compared to untreated controls) were calculated from survival curves using BioAssay software (CambridgeSoft) and GraphPad Prism (Graph Pad Software Inc.). The results are provided in Table 3, below, wherein A=less than 50 nM; B=less than 250 nM; C=less than 1000 nM; and D=greater than 1000 nM.

[3] = biological target: T2, XIAP (Homo sapiens, UniProt P98170); experiment: Fluorescence polarization-based competition assay, XIAP; format: binding; conditions: FP assay, ki derived from IC50
T2 construct: fused on or other part: GST tag at the N-terminus (pGEX4T vectors)
T2 sequence (P98170 246-497 limits assumed): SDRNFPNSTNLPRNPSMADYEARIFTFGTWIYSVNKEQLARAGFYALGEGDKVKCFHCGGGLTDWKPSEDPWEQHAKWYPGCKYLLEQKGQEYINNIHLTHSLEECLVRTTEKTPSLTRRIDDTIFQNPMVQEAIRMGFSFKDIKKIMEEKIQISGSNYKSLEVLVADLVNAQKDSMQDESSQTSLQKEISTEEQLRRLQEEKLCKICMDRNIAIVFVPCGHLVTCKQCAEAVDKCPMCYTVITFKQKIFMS
Description: as §1, §2, §3

[4] = biological target: T3, c-IAP1 (Homo sapiens, UniProt Q13490); experiment: Fluorescence polarization-based competition assay, c-IAP1; format: binding; conditions: FP assay, ki derived from IC50
T3 construct: GST (N); made in house; host or cells: E. coli DH5α
T3 sequence (Q13490 251-363): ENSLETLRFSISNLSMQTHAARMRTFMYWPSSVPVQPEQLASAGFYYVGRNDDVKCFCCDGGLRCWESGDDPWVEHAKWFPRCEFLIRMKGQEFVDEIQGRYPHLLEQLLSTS
Description: as §1, §2, §3

T1 sequence (Q13489 236-349): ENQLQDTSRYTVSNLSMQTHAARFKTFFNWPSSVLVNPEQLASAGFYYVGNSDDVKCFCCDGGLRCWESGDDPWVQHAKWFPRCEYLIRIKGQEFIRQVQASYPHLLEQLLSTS

Row | SMILES | Ki [1] [µM] | EC50 [2] [µM] | Ki [3] [µM] | Ki [4] [µM]
1 | CN[C@@H](C)C(=O)N[C@H](C(=O)N1CCC[C@H]1CN(CCc1ccc(F)cc1)C(=O)c1cn(-c2ccc(F)cc2)cn1)C1CCCCC1 [Compound 104] | < 0.025 | < 0.05 | < 0.25 | < 0.025
2 | CN[C@@H](C)C(=O)N[C@H](C(=O)N1CCC[C@H]1CN(CCc1ccc(F)cc1)C(=O)c1cc(C)on1)C(C)(C)C [Compound 98] | < 0.025 | < 0.25 | < 0.25 | < 0.025
3 | CN[C@@H](C)C(=O)N[C@H](C(=O)N1CCC[C@H]1CN(CCc1ccc(F)cc1)C(=O)c1cn2cccnc2n1)C1CCCCC1 [Compound 20] | < 0.025 | < 0.05 | < 0.25 | < 0.025
4 | CN[C@@H](C)C(=O)N[C@H](C(=O)N1CCC[C@H]1CN(CCc1cccc(F)c1)C(=O)c1cn2cccnc2n1)C(C)(C)C [Compound 12] | < 0.25 | < 0.25 | < 1 | < 0.025
5 | C[C@H](N)C(=O)N[C@H](C(=O)N1CCC[C@H]1CN(CCc1ccc(F)cc1)C(=O)c1cn2cccnc2n1)C(C)(C)C [Compound 37] | < 0.025 | > 1 | < 0.25 | < 0.025
6 | CN[C@@H](C)C(=O)N[C@H](C(=O)N1C[C@@H](NC(=O)c2ccccc2)C[C@H]1CN(CCc1ccc(F)cc1)C(=O)c1cn2c(n1)CCC2)C(C)(C)C [Compound 89] | < 0.025 | < 0.05 | < 0.25 | < 0.025
7 | CN[C@@H](C)C(=O)N[C@H](C(=O)N1C[C@@H](Oc2ccccc2)C[C@H]1CN(CCc1ccc(F)cc1)C(=O)c1cn2cccnc2n1)C(C)(C)C [Compound 124] | < 0.025 | < 0.05 | < 0.25 | < 0.025
8 | CN[C@@H](C)C(=O)N[C@H](C(=O)N1C[C@@H](NC(=O)c2ccccc2)C[C@H]1CN(CCc1ccc(F)cc1)C(=O)c1cn2ccccc2n1)C(C)(C)C [Compound 69] | < 0.025 | < 0.25 | < 0.25 | < 0.025
9 | CN[C@@H](C)C(=O)N[C@H](C(=O)N1CCC[C@H]1CN(CCc1ccccc1)C(=O)c1cn2cccnc2n1)C(C)(C)C [Compound 6] | < 0.025 | < 0.25 | < 0.25 | < 0.025
10 | CN[C@@H](C)C(=O)N[C@H](C(=O)N1CCC[C@H]1CN(CCc1ccc(F)cc1)C(=O)c1cn(-c2ccccc2)nn1)C(C)(C)C [Compound 50] | < 0.025 | < 0.25 | < 0.25 | < 0.025
11 | CN[C@@H](C)C(=O)N[C@H](C(=O)N1C[C@@H](NC(=O)OCc2ccccc2)C[C@H]1CN(CCc1ccc(F)cc1)C(=O)c1cn2cccnc2n1)C(C)(C)C [Compound 44] | < 0.025 | < 0.25 | < 0.25 | < 0.025
12 | CCO[C@H](C)[C@H](NC(=O)[C@H](C)NC)C(=O)N1CCC[C@H]1CN(CCc1ccc(F)cc1)C(=O)c1cn2cc(F)cnc2n1 [Compound 80] | < 0.025 | < 0.05 | < 0.25 | < 0.025
13 | CN[C@@H](C)C(=O)N[C@H](C(=O)N1CCC[C@H]1CN(CCc1ccc(F)cc1)C(=O)c1cn(-c2ccc(F)cc2)nn1)C(C)(C)C [Compound 125] | < 0.025 |  | < 0.25 | < 0.025
14 | CN[C@@H](C)C(=O)N[C@H](C(=O)N1C[C@@H](Oc2ccc(F)cc2)C[C@H]1CN(CCc1ccc(F)cc1)C(=O)c1cn2c(n1)CCC2)[C@@H](C)OC [Compound 114] | < 0.025 | < 0.05 | < 0.025 | < 0.025
15 | CN[C@@H](C)C(=O)N[C@H](C(=O)N1CCC[C@H]1CN(CCc1ccc(F)cc1)C(=O)c1cn(C)cn1)[C@@H](C)OC [Compound 73] | < 0.025 | < 0.25 | < 0.25 | < 0.025
16 | CN[C@@H](C)C(=O)N[C@H](C(=O)N1C[C@@H](Oc2ccc(F)cc2)C[C@H]1CN(CCc1ccc(F)cc1)C(=O)c1cn2cc(F)cnc2n1)[C@@H](C)OC [Compound 107] | < 0.025 | < 0.05 | < 0.25 | < 0.025

Row | SMILES | Ki [1] [µM] | EC50 [2] [µM] | Ki [3] [µM] | Ki [4] [µM]
17 | CN[C@@H](C)C(=O)N[C@H](C(=O)N1CCC[C@H]1CN(CCc1ccc(F)cc1)C(=O)c1cc(-c2ccccc2)on1)C(C)(C)C [Compound 115] | < 0.025 | < 0.25 | < 0.25 | < 0.025
18 | CN[C@@H](C)C(=O)N[C@H](C(=O)N1C[C@@H](Oc2ccc(F)cc2)C[C@H]1CN(CCc1ccc(F)cc1)C(=O)c1cn2ccccc2n1)[C@@H](C)OC [Compound 102] | < 0.025 | < 0.05 | < 0.25 | < 0.025
19 | CN[C@@H](C)C(=O)N[C@H](C(=O)N1C[C@@H](Oc2ccc(OC)cc2)C[C@H]1CN(CCc1ccc(F)cc1)C(=O)c1cn(C)cn1)C(C)(C)C [Compound 96] | < 0.025 | < 0.05 | < 0.25 | < 0.025
20 | CCN[C@@H](C)C(=O)N[C@H](C(=O)N1CCC[C@H]1CN(CCc1ccccc1)C(=O)c1cn2cccnc2n1)C1CCCCC1 [Compound 2] | < 0.25 | < 1 | > 1 | < 0.25
21 | CN[C@@H](C)C(=O)N[C@H](C(=O)N1CCC[C@H]1CN(CCc1ccc(F)cc1)C(=O)c1cn2c(n1)CCC2)C(C)(C)C [Compound 67] | < 0.025 | < 0.05 | < 0.25 | < 0.025
22 | CN[C@@H](C)C(=O)N[C@H](C(=O)N1CCC[C@H]1CN(CCc1ccc(F)cc1)C(=O)c1cn2cccnc2n1)[C@@H](C)OC [Compound 36] | < 0.025 | < 0.25 | < 0.25 | < 0.025
23 | CN[C@@H](C)C(=O)N[C@H](C(=O)N1C[C@@H](Oc2ccc(OC(F)(F)F)cc2)C[C@H]1CN(CCc1ccc(F)cc1)C(=O)c1cn2ccccc2n1)C(C)(C)C [Compound 111] | < 0.025 | < 0.05 | < 0.025 | < 0.025
24 | CN[C@@H](C)C(=O)N[C@H](C(=O)N1C[C@@H](NC(=O)Cc2ccccc2)C[C@H]1CN(CCc1ccc(F)cc1)C(=O)c1cn2cccnc2n1)C(C)(C)C [Compound 56] | < 0.025 | < 1 | < 1 | < 0.025
25 | CN[C@@H](C)C(=O)N[C@H](C(=O)N1CCC[C@H]1CN(CCc1ccc(F)cc1)C(=O)c1nnn(-c2ccc(F)cc2)n1)C(C)(C)C [Compound 126] | < 0.025 |  | < 0.25 | < 0.025
26 | CN[C@@H](C)C(=O)N[C@H](C(=O)N1CCC[C@H]1CN(CCc1ccccc1)C(=O)c1cn2c(n1)CCCC2)C(C)(C)C [Compound 15] |  | < 0.25 | < 0.25 | < 0.025
27 | CN[C@@H](C)C(=O)N[C@H](C(=O)N1CCC[C@H]1CN(CCc1ccc(F)cc1)C(=O)c1nc2ccccc2o1)C(C)(C)C [Compound 62] |  | < 1 | < 0.25 | < 0.025
28 | CN[C@@H](C)C(=O)N[C@H](C(=O)N1CCC[C@H]1CN(CCc1ccccc1)C(=O)c1c[nH]c2ccccc12)C(C)(C)C [Compound 24] |  | < 0.25 | < 0.25 | < 0.025
29 | CN[C@@H](C)C(=O)N[C@H](C(=O)N1CCC[C@H]1CN(CCc1ccc(F)cc1)C(=O)C(=O)Nc1ccc(OC)cc1)C(C)(C)C [Compound 41] |  | < 1 | < 0.25 | < 0.025
30 | CN[C@@H](C)C(=O)N[C@H](C(=O)N1CCC[C@H]1CN(CCc1ccc(F)cc1)C(=O)c1cn(-c2c(C)cccc2C)cn1)C(C)(C)C [Compound 54] |  | < 0.05 | < 0.25 | < 0.025
31 | CN[C@@H](C)C(=O)N[C@H](C(=O)N1CCC[C@H]1CN(CCc1ccccc1)C(=O)c1cn2cccnc2n1)C1CCOCC1 [Compound 3] |  | < 1 | < 0.25 | < 0.025
